Measured values as given in patent US20040019018A1, “Rigid pyrrolidone modulators of pkc” (priority 2003, published 2004).
pKi: −log10 of the molar value.

Key:
whole brain PKC = experiment: [3H]PDBu displacement from unresolved mixture of PKC isozymes from whole brain extracts; format: binding; settings: [3H]PDBu competition
Experimental: The ability of representative compounds of the invention to bind specific isozymes of PKC was determined using an assay (Example 13) in which displacement of [20-^3H]phorbol -12,13-dibutyrate ([^3H]PDBu) from either recombinant PKC isozymes prepared in a Baculovirus system, or unresolved mixture of isozymes of PKC isolated from whole brain extracts, was used. These procedures are described below. As described in detail below, preferred compounds for neurological effects are those in which affinity for α, β and γ isozymes is the greatest (i.e. those having the lowest Ki) relative to other isozymes as such as the δ- and ε-isozymes shown in Table 1. […]
Analysis of [20-^3H]phorbol 12,13-dibutyrate binding to PKC. […] Phosphatidylserine and bovine […] were obtained from Sigma Chemical Co. Binding was determined in an incubation volume of 250 μl, containing [^3H]PDBu, PKC, 0.05 M Tris-Cl, pH 7.4, 100 μg/ml phosphatidylserine, various concentrations of the ligand being assayed for competition of [^3H]PDBu binding, and bovine […] at 1 mg/ml. […] [^3H]PDBu was used at a concentration twice the Kd previously determined for the specific receptor. […]
Specific binding represents the difference between total binding and the non-specific binding, where the latter value was calculated from the partition coefficient and the measured free [^3H]PDBu concentration in each tube. […]

[1] = test system: LNCaP prostate cancer cells; experiment: Induction of apoptosis in LNCaP prostate cancer cells (DAPI staining); format: cell-based
Experimental: The capacity of inducing apoptosis by compound (1) was evaluated in a model of LNCaP prostate cancer cells. It is well established that in this model phorbol esters (e.g., PMA) activate PKC to induce apoptosis (reference 13). LNCaP cells were treated with compound (1) for 1 h, and apoptosis was assessed 24 h later.
Control cells or cells infected for 14 h with adenoviruses for LacZ, PKCα, or PKCδ (multiplicity of infection=10 pfu/cell) were treated with different concentrations of compound (1) or PMA for 1 h. Cells were collected 24 h later and stained with DAPI. The incidence of apoptosis in each preparation was analyzed by counting 500 cells and determining the percentage of apoptotic cells. Results are the mean±standard error of three independent experiments.
It is well established that PKCα and PKCδ are the isozymes that mediate phorbol ester-induced apoptosis in LNCaP cells (references 13c-e). A model that has been used to assess isozyme-specificity is the overexpression of specific PKCs by an adenoviral system. Infection of LNCaP cells with adenoviruses for PKCs leads to a high expression of the corresponding PKC isozyme, as determined by Western-blot analysis, kinase activity, or [^3H]PDBu binding (reference 13e).

sAPP α = experiment: Secreted APP from human fibroblasts, Western blot with 6E10 (Example 14); format: cell-based; settings: human fibroblasts (AD patients)
Experimental: Human fibroblasts were grown to confluence as above for PKC translocation. On the day of the experiment, cells were rinsed twice with serum-free Dulbecco's modified Eagle's medium (DMEM) and incubated in the same medium for 2 hours. Cells were treated with the drugs above, or DMSO vehicle as a control, for 2 hours. The medium was collected and spun for 5 min in a clinical centrifuge to remove cell debris. Proteins in the cell medium were precipitated using 10% trichloroacetic acid (TCA). Precipitated proteins were dissolved in electrophoresis buffer, separated on 8% SDS-PAGE as described above. Secreted APP was detected by Western blotting using a specific monoclonal antibody, 6E10.

Q: With `CCCCCCCCCCCC(=O)Oc1ccc2c(c1)[C@](C)(C(C)C)[C@H]1C(=O)N[C@H](CO)[C@@H]21` [Compound 2, (3S, 8R, 9S, 10S)-6-dodecanoyloxyl-3-hydroxymethyl-8-isopropyl-8-methyl-3,3a,8,8a-tetrahydro-2H -2-aza-cyclopenta[a]inden-1-one] as the compound, how does the pKi (whole brain PKC) read?
A: < 5.00

Q: What does the source list for `CCCCCCCCC#Cc1ccc2c(c1)C(C)(C(C)C)C1C(=O)NC(CO)C21` [Compound 1, (3S, 8R, 9S, 10S)-6-(dec-1′-ynyl)-3-hydroxymethyl-8-isopropyl-8-methyl-3,3a,8,8a-tetrahydro-2H-2-aza-cyclopenta[a]inden-1-one]?
A: apoptotic effect in LNCaP cells ([1]; 1-30 μM, treated 1 h, apoptosis assessed 24 h later, FIG. 6A): induces a dose-dependent apoptotic effect; apoptotic effect with control adenovirus ([1]; LNCaP cells infected with LacZ adenovirus): did not affect the apoptotic effect; apoptotic response with overexpression of PKC isozymes ([1]; LNCaP cells infected with adenoviruses for PKCα or PKCδ): markedly potentiates the apoptotic response; secretion of sAPP (sAPP α): increased the secretion of sAPP; pKi (whole brain PKC): < 5.00
